Some test systems named below: A549; CCRF-CEM; DU-145; HCC 2998; HT-29; IGROV-1; KM12; M14; MCF7; MDA-MB-231; Malme-3M; OVCAR-3; RPMI-8226; SF-295; SF-539; SK-MEL-28; SK-MEL-2; SK-MEL-5; UACC-62; A498.
Holding throughout (test): NCI-60 cell line screen, 48 h

These results are taken from ChEMBL document CHEMBL1201862, “PubChem BioAssay data set” (2004).

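Interpolation was linear, between the two tested concentrations surrounding the appropriate level; five concentrations were tested over 48 hours in 96-well plates. GI50 is the concentration that inhibits growth by half.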 The source made the active and inactive calls. No stated cut-off is given here; in the data, active = GI50 up to about 1.1 µM and inactive = higher. Some results are limits rather than exact numbers.

As to `Clc1ccc(OCC2NC3CCC2CC3)cn1` (stereo not given), the GI50 is 37.9 µM (inactive) in the test with A549; 25 µM (inactive) with CCRF-CEM; 59.3 µM (inactive) in the test on DU-145; 16.6 µM (inactive) with HCC 2998; 17.9 µM (inactive) with HT-29; 38.2 µM (inactive) in the test on IGROV-1. Further, the GI50 with KM12 was 18.4 µM (inactive); in the test on M14 it was 21.2 µM (inactive); with MCF7, 17.9 µM (inactive); with MDA-MB-231, 19.1 µM (inactive); in the test with Malme-3M, 19.5 µM (inactive); with OVCAR-3 it was 60.4 µM (inactive). Besides, the GI50 in the test on RPMI-8226 is 13.4 µM (inactive); in the test on SF-295, 19.8 µM (inactive); in the test with SF-539, 20.7 µM (inactive); with SK-MEL-28 it was 37.8 µM (inactive); in the test on SK-MEL-2, 18 µM (inactive); in the test on SK-MEL-5, 17.6 µM (inactive). Also, in the test on UACC-62, the GI50 was 17.7 µM (inactive).
Turning to `CCN(CC)C(=S)SS(=O)(=O)c1ccc(NC(C)=O)cc1`, the GI50 with A498 was > 55.6 µM (inactive); in the test on A549, 2.21 µM (inactive); in the test with DU-145, 22.6 µM (inactive); in the test on HCC 2998, 31.6 µM (inactive); in the test with HT-29, 24.8 µM (inactive); in the test on KM12 it was 55.8 µM (inactive). Also, the GI50 was 17.1 µM (inactive) with M14; 17 µM (inactive) in the test on MDA-MB-231; 15.9 µM (inactive) in the test with Malme-3M; 31.7 µM (inactive) in the test with OVCAR-3; 18.5 µM (inactive) with RPMI-8226; 28.2 µM (inactive) in the test with SF-295. The GI50 with SK-MEL-28 was 17.3 µM (inactive); in the test on SK-MEL-2, 41.7 µM (inactive); in the test on SK-MEL-5, 0.778 µM (active); with UACC-62, 19.9 µM (inactive).
As for `CCN(CC)CCCNc1nc(=O)[nH]c(C)c1C(=O)Nc1cccc2cc3ccccc3cc12`, the GI50 with A549, in the test with CCRF-CEM, with DU-145, in the test with HCC 2998, in the test on HT-29 and in the test with IGROV-1 was > 100 µM (inactive) throughout. Further, the GI50 with KM12 is 45.9 µM (inactive); in the test on M14, > 100 µM (inactive); in the test on MCF7, > 100 µM (inactive); with MDA-MB-231, 82.4 µM (inactive); in the test with Malme-3M it was > 100 µM (inactive); in the test with OVCAR-3, > 100 µM (inactive). Further, the GI50 in the test on RPMI-8226, in the test with SF-295, with SF-539, in the test with SK-MEL-28, with SK-MEL-2 and in the test with SK-MEL-5 was > 100 µM (inactive) each time. In addition, the GI50 in the test on UACC-62 was > 100 µM (inactive).
Consider `CC(C)C(N)C(=O)NC(CCC(=O)NCCCCC(N)C(=O)NCCCNc1ccc([N+](=O)[O-])c2[nH]c3ccccc3c(=O)c12)C(N)=O` (stereo not given), for which the GI50 with A498 was 59 µM (inactive); with A549 it was 27.3 µM (inactive); with CCRF-CEM, 34.5 µM (inactive); in the test with DU-145 it was > 100 µM (inactive); in the test on HCC 2998 it was 40.2 µM (inactive); in the test on KM12, > 100 µM (inactive). The GI50 in the test with M14 was 75.3 µM (inactive); in the test on MDA-MB-231, 41.2 µM (inactive); in the test on OVCAR-3 it was > 100 µM (inactive); in the test with RPMI-8226, 33.7 µM (inactive); in the test on SF-295, 55.7 µM (inactive); in the test on SK-MEL-28, > 100 µM (inactive). For the same compound, the GI50 is 91.6 µM (inactive) in the test with SK-MEL-2, > 100 µM (inactive) in the test on SK-MEL-5 and 25.2 µM (inactive) in the test with UACC-62.
Take `COc1cc(C2c3cc4c(cc3OC(NCCO)C2C)OCO4)cc(OC)c1O` (stereo not given): the GI50 with A549 is 10.1 µM (inactive); in the test on DU-145 it was 9.79 µM (inactive); with HCC 2998 it was 5.81 µM (inactive); with HT-29, 7.11 µM (inactive); in the test with IGROV-1, 7.11 µM (inactive); in the test on KM12 it was 6.78 µM (inactive). Besides, the GI50 in the test with M14 is 9.55 µM (inactive); with MCF7, 9.29 µM (inactive); with MDA-MB-231, 7.23 µM (inactive); with Malme-3M, 6.37 µM (inactive); with OVCAR-3 it was 5.2 µM (inactive); in the test on RPMI-8226, 3.23 µM (inactive). Also, the GI50 with SF-295 was 5.48 µM (inactive); with SF-539, 13.9 µM (inactive); with SK-MEL-28, 7.64 µM (inactive); in the test on SK-MEL-2 it was 4.79 µM (inactive); with SK-MEL-5, 4.86 µM (inactive); with UACC-62, 2.94 µM (inactive).
For `C=CCC1(C(=O)OC)CCC/C(=N\O)C1` (stereo not given), the GI50 in the test with A549, in the test with CCRF-CEM, in the test on DU-145, in the test with HCC 2998, with HT-29 and in the test with IGROV-1 was > 10 µM (inactive) throughout. Also, the GI50 in the test on KM12, in the test on M14, in the test on MCF7, with MDA-MB-231, with Malme-3M and in the test with OVCAR-3 was > 10 µM (inactive) each time. The GI50 in the test on RPMI-8226, with SF-295, in the test on SF-539, in the test with SK-MEL-28, in the test on SK-MEL-5 and in the test with UACC-62 was > 10 µM (inactive) throughout.
With `COc1ccc2[nH]cc(CCNC(=O)[C@H](Cc3ccccc3)NC(=O)[C@@H](NCC(F)(F)F)C(C)C)c2c1`, the GI50 in the test on A549 is 27 µM (inactive); in the test with CCRF-CEM, 0.809 µM (active); with DU-145, 18.3 µM (inactive); in the test on HT-29, 16.7 µM (inactive); in the test on IGROV-1, 21.2 µM (inactive); in the test on KM12, 18.5 µM (inactive). For the same compound, the GI50 in the test on M14 is 17.7 µM (inactive); with MCF7, 17.9 µM (inactive); in the test with MDA-MB-231, 18.5 µM (inactive); in the test with Malme-3M it was 21.6 µM (inactive); with OVCAR-3 it was 15.6 µM (inactive); in the test on RPMI-8226, 8.17 µM (inactive). The GI50 is 11.2 µM (inactive) with SF-295; 19 µM (inactive) with SF-539; 17.2 µM (inactive) in the test with SK-MEL-28; 19.4 µM (inactive) with SK-MEL-2; 19.1 µM (inactive) with UACC-62.
`COc1ccc2oc(=O)c(-c3cc4c(c(C)n3)c(=O)oc3ccc(OC)cc34)cc2c1`: the GI50 is > 100 µM (inactive) in the test with A549; > 100 µM (inactive) with CCRF-CEM; > 100 µM (inactive) in the test with DU-145; > 100 µM (inactive) in the test on HCC 2998; 80.5 µM (inactive) in the test on HT-29; > 100 µM (inactive) with IGROV-1. The GI50 in the test on KM12, in the test on M14, in the test on MCF7, in the test with MDA-MB-231, in the test with OVCAR-3 and in the test on RPMI-8226 was > 100 µM (inactive) in each case. The GI50 in the test with SF-295 was 95.7 µM (inactive); in the test on SF-539 it was 93.5 µM (inactive); with SK-MEL-28 it was > 100 µM (inactive); in the test with SK-MEL-2 it was > 100 µM (inactive); in the test with SK-MEL-5, > 100 µM (inactive); with UACC-62, 35.8 µM (inactive).
Take `CC1=C[P+](c2ccccc2)(c2ccccc2)c2ccccc2O1`: the GI50 is 13.6 µM (inactive) in the test on A549; 19.2 µM (inactive) in the test on DU-145; 2.91 µM (inactive) in the test on HT-29; 5.28 µM (inactive) in the test with IGROV-1; 2.07 µM (inactive) in the test with KM12; 3.39 µM (inactive) with M14. Also, the GI50 was 5.05 µM (inactive) in the test on MCF7; 3.96 µM (inactive) in the test with MDA-MB-231; 4.71 µM (inactive) in the test with Malme-3M; 1.14 µM (inactive) with OVCAR-3; 13 µM (inactive) with SF-295; 7.89 µM (inactive) with SF-539. Besides, the GI50 is 7.01 µM (inactive) with SK-MEL-28, 4.17 µM (inactive) in the test with SK-MEL-2, 2.81 µM (inactive) in the test on SK-MEL-5 and 8 µM (inactive) in the test on UACC-62.
`Cc1ccc(S(=O)(=O)NC(=O)Nc2ccc(C(=O)O)cc2)cc1`: the GI50 in the test on A549, with CCRF-CEM, with DU-145, in the test on HT-29, in the test with IGROV-1 and in the test on KM12 was > 100 µM (inactive) each time. Besides, the GI50 in the test on M14, in the test on MCF7, with MDA-MB-231, in the test on Malme-3M, with RPMI-8226 and with SF-295 was > 100 µM (inactive) in each case. For the same compound, the GI50 with SF-539, with SK-MEL-28, in the test on SK-MEL-2, in the test on SK-MEL-5 and in the test with UACC-62 was > 100 µM (inactive) each time.
As to `CCCCCCc1cn([C@H]2C[C@H](O)[C@@H](CO)O2)c(=O)[nH]c1=O`, the GI50 in the test with A498, in the test on A549, in the test on CCRF-CEM, with HCC 2998, with HT-29 and in the test with IGROV-1 was > 100 µM (inactive) each time. Besides, the GI50 was > 100 µM (inactive) in the test with KM12; > 100 µM (inactive) in the test on MCF7; > 100 µM (inactive) with Malme-3M; > 100 µM (inactive) in the test on OVCAR-3; > 100 µM (inactive) in the test with RPMI-8226; > 31.6 µM (inactive) in the test with SF-295. Moreover, the GI50 in the test on SF-539 is > 100 µM (inactive); in the test on SK-MEL-28, > 100 µM (inactive); in the test on SK-MEL-2, > 100 µM (inactive); with SK-MEL-5, > 100 µM (inactive); in the test on UACC-62 it was > 31.6 µM (inactive).
